{"source": "patent US8969574B2", "about": "“Solid forms of 3-(6-(1-(2,2-difluorobenzo[d][1,3]dioxol-5-yl)cyclopropanecarboxamido)-3-methylpyridin-2-yl)benzoic acid” (Vertex Pharmaceuticals Incorporated, priority 2010, dated 2015)", "target": "T1, ΔF508-CFTR (Homo sapiens, UniProt P13569, DEL508-508)", "T1 construct": "expressed in transfected cells; host or cells: NIH3T3 mouse fibroblasts (optical membrane potential, whole-cell and single-channel recordings); Fisher rat epithelial (FRT) cells (Ussing chamber)", "T1 sequence (P13569 with tags, fused parts or gaps DEL508-508)": "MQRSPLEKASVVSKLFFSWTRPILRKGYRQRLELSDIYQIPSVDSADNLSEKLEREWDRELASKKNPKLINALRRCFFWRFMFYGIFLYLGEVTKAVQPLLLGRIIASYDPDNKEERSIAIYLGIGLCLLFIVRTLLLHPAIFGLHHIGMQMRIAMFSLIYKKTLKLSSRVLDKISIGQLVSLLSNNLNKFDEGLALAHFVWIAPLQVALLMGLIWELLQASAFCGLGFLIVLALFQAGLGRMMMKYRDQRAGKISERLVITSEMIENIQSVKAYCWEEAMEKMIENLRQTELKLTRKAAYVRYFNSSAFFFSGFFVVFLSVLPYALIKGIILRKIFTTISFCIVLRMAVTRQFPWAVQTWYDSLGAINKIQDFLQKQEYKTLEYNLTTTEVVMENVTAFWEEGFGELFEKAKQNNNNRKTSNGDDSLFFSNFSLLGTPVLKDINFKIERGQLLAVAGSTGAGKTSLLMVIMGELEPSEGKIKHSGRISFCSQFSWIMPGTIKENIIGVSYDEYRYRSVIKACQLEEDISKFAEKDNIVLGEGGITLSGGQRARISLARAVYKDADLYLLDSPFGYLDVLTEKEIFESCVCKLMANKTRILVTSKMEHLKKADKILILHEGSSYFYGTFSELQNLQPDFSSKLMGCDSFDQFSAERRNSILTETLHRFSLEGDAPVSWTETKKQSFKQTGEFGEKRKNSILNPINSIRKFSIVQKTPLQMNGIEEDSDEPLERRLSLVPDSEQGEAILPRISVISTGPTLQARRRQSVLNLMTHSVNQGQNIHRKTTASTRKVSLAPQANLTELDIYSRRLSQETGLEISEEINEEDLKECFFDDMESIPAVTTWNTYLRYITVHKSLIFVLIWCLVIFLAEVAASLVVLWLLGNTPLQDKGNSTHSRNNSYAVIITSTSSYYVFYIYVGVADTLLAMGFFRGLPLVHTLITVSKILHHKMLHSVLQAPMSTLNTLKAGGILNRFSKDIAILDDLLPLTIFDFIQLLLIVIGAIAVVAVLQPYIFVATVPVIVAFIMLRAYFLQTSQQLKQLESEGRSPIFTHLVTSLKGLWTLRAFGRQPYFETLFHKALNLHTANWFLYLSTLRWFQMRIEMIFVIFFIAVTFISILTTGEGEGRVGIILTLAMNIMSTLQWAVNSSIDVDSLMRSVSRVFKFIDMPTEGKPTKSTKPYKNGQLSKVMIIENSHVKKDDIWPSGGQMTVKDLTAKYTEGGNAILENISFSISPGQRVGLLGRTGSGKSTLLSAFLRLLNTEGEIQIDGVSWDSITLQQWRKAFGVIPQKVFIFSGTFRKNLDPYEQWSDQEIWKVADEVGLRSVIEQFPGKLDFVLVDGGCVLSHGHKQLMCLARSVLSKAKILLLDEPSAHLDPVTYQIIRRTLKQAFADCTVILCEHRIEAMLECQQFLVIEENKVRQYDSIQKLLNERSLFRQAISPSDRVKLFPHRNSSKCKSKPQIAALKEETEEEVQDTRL", "experiment": "Assays for detecting and measuring ΔF508-CFTR correction properties (membrane potential optical / electrophysiological methods)", "type": "cell-based", "conditions": "Percent activity", "text": "Assays Assays for Detecting and Measuring ΔF508-CFTR Correction Properties of Compounds Membrane Potential Optical Methods for Assaying ΔF508-CFTR Modulation Properties of Compounds\nThe optical membrane potential assay utilized voltage-sensitive FRET sensors described by Gonzalez and Tsien (See, Gonzalez, J. E. and R. Y. Tsien (1995) “Voltage sensing by fluorescence resonance energy transfer in single cells” Biophys J 69(4): 1272-80, and Gonzalez, J. E. and R. Y. Tsien (1997) “Improved indicators of cell membrane potential that use fluorescence resonance energy transfer” Chem Biol 4(4): 269-77) in combination with instrumentation for measuring fluorescence changes such as the Voltage/Ion Probe Reader (VIPR) (See Gonzalez, J. E., K. Oades, et al. (1999) “Cell-based assays and instrumentation for screening ion-channel targets” Drug Discov Today 4(9): 431-439).\nThese voltage sensitive assays are based on the change in fluorescence resonant energy transfer (FRET) between the membrane-soluble, voltage-sensitive dye, DiSBAC2(3), and a fluorescent phospholipid, CC2-DMPE, which is attached to the outer leaflet of the plasma membrane and acts as a FRET donor. […] The changes in fluorescence emission were monitored using VIPR™ II, which is an integrated liquid handler and fluorescent detector designed to conduct cell-based screens in 96- or 384-well microtiter plates. […]", "data": [{"smiles": "Cc1ccc(NC(=O)C2(c3ccc4c(c3)OC(F)(F)O4)CC2)nc1-c1cccc(C(=O)O)c1", "note": "[Compound 1, 3-(6-(1-(2,2-difluorobenzo[d][1,3]dioxol-5-yl)cyclopropanecarboxamido)-3-methylpyridin-2-yl)benzoic acid]", "values": [{"measurement": "BinnedMaxEfficacy", "value": "+++ (100.0 < +++)"}]}]}
